# Experimental data from patent publication US6649643B1, “Imidazol-4-ylmehanols and their use as inhibitors of steroid C17-20 lyase” (Takeda Chemical Industries, Ltd., priority 1999, dated 2003).
# Counter-ions that a name gives are not always drawn.
# Assays:
# Rat Steroid C17,20-lyase = molecular target: T1, Rat Steroid C17,20-lyase (Rattus norvegicus, UniProt P11715); test: Inhibitory activity on a rat steroid C17,20-lyase in vitro; assay type: biochemical; conditions: rat testicular microsomes, 10 nM [1,2-3H]-17-α-hydroxyprogesterone, NADPH, 7 min at 37° C., products testosterone and androstenedione
# T1 construct: Testes excised from 13-week old, male SD rats were homogenized, and testicular microsomes were prepared; from tissue; host or cells: testicular microsomes of 13-week old male SD rats
# T1 sequence (P11715 1-507): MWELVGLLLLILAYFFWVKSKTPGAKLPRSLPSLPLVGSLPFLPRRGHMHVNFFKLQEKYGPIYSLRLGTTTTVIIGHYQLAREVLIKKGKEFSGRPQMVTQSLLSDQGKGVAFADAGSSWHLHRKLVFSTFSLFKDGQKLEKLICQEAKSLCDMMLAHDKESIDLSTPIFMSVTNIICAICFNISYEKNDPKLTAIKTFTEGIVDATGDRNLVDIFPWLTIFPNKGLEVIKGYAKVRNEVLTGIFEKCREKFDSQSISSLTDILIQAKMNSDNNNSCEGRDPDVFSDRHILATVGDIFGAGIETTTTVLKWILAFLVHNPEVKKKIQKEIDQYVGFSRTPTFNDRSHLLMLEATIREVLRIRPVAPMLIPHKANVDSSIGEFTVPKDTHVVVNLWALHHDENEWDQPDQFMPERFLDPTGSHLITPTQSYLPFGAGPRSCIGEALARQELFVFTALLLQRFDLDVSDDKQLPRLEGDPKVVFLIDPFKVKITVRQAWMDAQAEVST
# Method: Assay of Inhibitory Activity on a Rat Steroid C17,20-lyase in Vitro
# Inhibitory activity was determined according to the method described in The Prostate, vol. 26, 140-150(1995) with some modifications.
# Testes excised from 13-week old, male SD rats were homogenized, and testicular microsomes were prepared by a series of centrifugation. The microsome protein (7 μg/10 μl) was added to 101 μl of 100 mM phosphate buffer (pH 7.4) in which 10 nM (final concentration) [1,2-3H]-17-α-hydroxyprogesterone, NADPH, and test compounds were dissolved. The reaction mixture was incubated for 7 min at 37° C., terminated by addition of 40 μl of ethyl acetate, and briefly centrifuged. The substrate and the products (testosterone and androstenedione) in the upper phase were separated by silica gel thin layer chromatography. Detection of the spots and measurement of the radioactivity were performed by a BAS 2000 Bioimage analyzer. The concentration of the test compounds necessary to reduce the concentration of the products by 50% (The concentration in the control group in which no test compound was added was taken as 100%) was calculated, and shown in Table 1.
# [1] = test system: testosterone biosynthesis; test: Inhibitory activity on testosterone biosynthesis in rats; assay type: in vivo, rat; conditions: male SD rats, oral, 50 mg/kg, serum testosterone 2 h later by radioimmunoassay, percentage of control group
# Method: Assay of Inhibitory Activity on Testosterone Biosynthesis in Rats
# Test compounds were orally administered to 9-week old, male SD (Sprague-Dawley rats at a dose of 50 mg/kg. Two-h later blood was taken and testosterone concentration in serum was measured by radioimmunoassay. The percentage of the testosterone concentration of the groups of rats, which received test compounds, to that of the control group was calculated, and regarded as the inhibitory activity.
Compound,"IC50 (Rat Steroid C17,20-lyase) [nM]","Inhibitory activity on testosterone bioxynthesis (T/C, %) [1] [%]"
"CCC(O)(c1ccc2c3c(ccc2c1)OCC3)c1c[nH]cn1 (stereo not drawn) [Example 18, 1-(1,2-Dihydronaphtho[2,1-b]furan-7-yl)-1-(1H-imidazol-4-yl)-1-propanol]",18,7.4
"CC(C)C(O)(c1ccc2cc(-c3ccco3)ccc2c1)c1c[nH]cn1 (stereo not drawn) [Example 2, 1-(6-(2-Furyl)-2-naphthyl)-1-(1H-imidazol-4-yl)-2-methyl-1-propanol]",28,
"CC(C)C(O)(c1ccc2cc(-c3cn[nH]c3)ccc2c1)c1c[nH]cn1 (stereo not drawn) [Example 6, 1-(1H-Imidazol-4-yl)-2-methyl-1-(6-(1H-pyrazol-4-yl)-2-naphthyl)-1-propanol]",15,10

# Second part, led by results:
"IC50 (Rat Steroid C17,20-lyase) [nM]",Compound,"Inhibitory activity on testosterone bioxynthesis (T/C, %) [1] [%]"
3.3,"COc1cc2ccc([C@](O)(c3c[nH]cn3)C(C)C)cc2cc1OC [Example 22, (S)-(−)-1-(6,7-Dimethoxy-2-naphthyl)-1-(1H-imidazol-4-yl)-2-methyl-1-propanol.fumaric Acid Salt]",
14,"CC(C)C(O)(c1ccc2cc(-c3cnco3)ccc2c1)c1c[nH]cn1 (stereo not drawn) [Example 7, 1-(1H-Imidazol-4-yl)-2-methyl-1-(6-(1,3-oxazol-5-yl)-2-naphthyl)-1-propanol]",
6.1,"CNC(=O)c1ccc2cc(C(O)(c3c[nH]cn3)C(C)C)ccc2c1 (stereo not drawn) [Example 9, 6-(1-Hydroxy-1-(1H-imidazol-4-yl)-2-methyl-propyl)-N-methyl-2-naphthamide]",4.5
